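Grown in 96-well plates, cells were treated for 48 hours with each compound at five concentrations. Insufficient inhibition: endpoint recorded as highest concentration tested. Here, GI50 denotes the concentration required for 50% inhibition of growth. TGI: concentration producing complete growth inhibition.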
Key:
Experiment in all cases: NCI anticancer screen, dose series, 48 h
[1] = tested on: SK-OV-3 ovarian
[2] = tested on: BT-549 breast
[3] = tested on: OVCAR-4 ovarian
[4] = tested on: CAKI-1 renal
[5] = tested on: 786-0 renal
[6] = tested on: A498 renal
[7] = tested on: MDA-MB-231 breast
[8] = tested on: K-562 leukemia
[9] = tested on: MDA-MB-435
[10] = tested on: HCT-116 colon
[11] = tested on: OVCAR-8 ovarian
[12] = tested on: NCI/ADR-RES ovarian
[13] = tested on: HCC-2998 colon
[14] = tested on: DU-145 prostate
[15] = tested on: TK-10 renal
[16] = tested on: SNB-19 CNS
[17] = tested on: T-47D breast
[18] = tested on: U251 CNS
[19] = tested on: SNB-75 CNS
[20] = tested on: HOP-62 NSCLC
[21] = tested on: HCT-15 colon
[22] = tested on: NCI-H226 lung
[23] = tested on: HOP-92 NSCLC
[24] = tested on: HS 578T breast
[25] = tested on: OVCAR-5 ovarian
[26] = tested on: MALME-3M melanoma
[27] = tested on: A549 NSCLC
[28] = tested on: CCRF-CEM leukemia
[29] = tested on: ACHN renal
[30] = tested on: RPMI-8226 leukemia
[31] = tested on: SK-MEL-2 melanoma
[32] = tested on: MCF7 breast
[33] = tested on: SK-MEL-5 melanoma
[34] = tested on: SR leukemia
[35] = tested on: UACC-62 melanoma
[36] = tested on: HT29 colon
[37] = tested on: PC-3 prostate
[38] = tested on: SF-268 CNS
[39] = tested on: LOX IMVI melanoma
[40] = tested on: EKVX NSCLC
[41] = tested on: NCI-H522 lung
[42] = tested on: UACC-257 melanoma
[43] = tested on: NCI-H460 lung
[44] = tested on: SN12C renal
[45] = tested on: OVCAR-3 ovarian
[46] = tested on: RXF 393 renal
[47] = tested on: SW-620 colon
[48] = tested on: NCI-H23 lung
[49] = tested on: SF-295 CNS
[50] = tested on: HL-60(TB) leukemia
[51] = tested on: SF-539 CNS
[52] = tested on: SK-MEL-28 melanoma
[53] = tested on: M14 melanoma
[54] = tested on: KM12 colon
[55] = tested on: IGROV1 ovarian
[56] = tested on: UO-31 renal

## O=C(Nc1cccc(Cl)c1)Nc1cc2ncncc2cc1OCc1cccc(F)c1
[1]
  GI50: 2.45 µM
  TGI: 6.13 µM
[2]
  GI50: 2.34 µM
  TGI: 7.41 µM
[3]
  GI50: 2.56 µM
  TGI: 7.35 µM
[4]
  GI50: 3.03 µM
  TGI: > 100 µM
[5]
  GI50: 3 µM
  TGI: > 100 µM
[6]
  GI50: 1.75 µM
  TGI: 5.96 µM
[7]
  GI50: 2.54 µM
  TGI: 7.8 µM
[8]
  GI50: 2.52 µM
  TGI: > 100 µM
[9]
  GI50: 1.48 µM
  TGI: 4.34 µM
[10]
  GI50: 2.61 µM
  TGI: > 100 µM
[11]
  GI50: 2.76 µM
  TGI: 7.98 µM
[12]
  GI50: 2.97 µM
  TGI: 7.71 µM
[13]
  GI50: 3.9 µM
  TGI: > 100 µM
[14]
  GI50: 3.38 µM
  TGI: > 100 µM
[15]
  GI50: 2.63 µM
  TGI: 7.98 µM
[16]
  GI50: 2.91 µM
  TGI: 74.2 µM
[17]
  GI50: 1.75 µM
  TGI: 4.37 µM
[18]
  GI50: 3.28 µM
  TGI: > 100 µM
[19]
  GI50: 1.81 µM
  TGI: 3.98 µM
[20]
  GI50: 2.1 µM
  TGI: 5.6 µM
[21]
  GI50: 2.72 µM
  TGI: > 100 µM
[22]
  GI50: 2.91 µM
  TGI: 9.19 µM
[23]
  GI50: 1.88 µM
  TGI: 6.88 µM
[24]
  GI50: 2.62 µM
  TGI: 7.02 µM
[25]
  GI50: 2.72 µM
  TGI: > 100 µM

## CCOc1ccc(NC(=O)/C(=N\N)C(C(=O)OC)c2nc3ccc(Cl)cc3[nH]c2=O)cc1 (stereo not drawn)
[26]
  TGI: > 100 µM
[27]
  TGI: > 100 µM
[1]
  TGI: > 100 µM
[28]
  TGI: > 100 µM
[2]
  TGI: > 100 µM
[29]
  TGI: > 100 µM
[3]
  TGI: > 100 µM
[30]
  TGI: > 100 µM
[4]
  TGI: > 100 µM
[31]
  TGI: > 100 µM
[32]
  TGI: > 100 µM
[33]
  TGI: > 100 µM
[5]
  TGI: > 100 µM
[6]
  TGI: > 100 µM
[34]
  TGI: > 100 µM
[35]
  TGI: > 100 µM
[7]
  TGI: > 100 µM
[9]
  TGI: > 100 µM
[36]
  TGI: > 100 µM
[10]
  TGI: > 100 µM
[37]
  TGI: > 100 µM
[11]
  TGI: > 100 µM
[38]
  TGI: > 100 µM
[39]
  TGI: > 100 µM
[12]
  TGI: > 100 µM
[40]
  TGI: > 100 µM
[41]
  TGI: > 100 µM
[42]
  TGI: > 100 µM
[13]
  TGI: > 100 µM
[43]
  TGI: > 100 µM
[44]
  TGI: > 100 µM
[45]
  TGI: > 100 µM
[46]
  TGI: > 100 µM
[47]
  TGI: > 100 µM
[15]
  TGI: > 100 µM
[48]
  TGI: > 100 µM
[17]
  TGI: > 100 µM
[18]
  TGI: > 100 µM
[49]
  TGI: > 100 µM
[19]
  TGI: > 100 µM
[20]
  TGI: > 100 µM
[21]
  TGI: > 100 µM
[50]
  TGI: > 100 µM
[51]
  TGI: > 100 µM
[22]
  TGI: > 100 µM
[52]
  TGI: > 100 µM
[53]
  TGI: > 100 µM
[54]
  TGI: > 100 µM
[55]
  TGI: > 100 µM
[56]
  TGI: > 100 µM
[23]
  TGI: > 100 µM
[24]
  TGI: > 100 µM
[25]
  TGI: > 100 µM
